Data on eight molecules can be found in PubChem BioAssay (NCI).

Test systems include CCRF-CEM leukemia; HOP-92 NSCLC; K-562 leukemia; MALME-3M melanoma; MCF7 breast; MDA-MB-435; MOLT-4 leukemia; NCI-H226 lung; NCI-H460 lung; NCI/ADR-RES ovarian; OVCAR-3 ovarian; RXF 393 renal; SK-MEL-2 melanoma; SN12C renal; SNB-75 CNS; T-47D breast; UACC-62 melanoma; OVCAR-4 ovarian; RPMI-8226 leukemia; TK-10 renal.
What all share (experiment): growth of human tumour cells (NCI), 48 h

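Following 48 hours of exposure in 96-well plates, responses at five concentrations were used to interpolate endpoints linearly. Definition used: TGI = concentration required for complete inhibition of growth.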

As to `O=C(NN1C(=O)C(Cl)C1c1ccc(Cl)cc1)c1c(Cl)c(Cl)c(Cl)c(Cl)c1-c1nc2ccccc2[nH]1` (stereo unspecified), the TGI in the assay on CCRF-CEM leukemia is > 100 µM; with HOP-92 NSCLC, 51.4 µM; in the assay with K-562 leukemia, > 100 µM; in the assay on MALME-3M melanoma it was 63.4 µM; in the assay with MCF7 breast, 34.4 µM; with MDA-MB-435, 80.5 µM. The TGI in the assay with MOLT-4 leukemia was > 100 µM; with NCI-H226 lung, 65.7 µM; with NCI-H460 lung, 46.4 µM; in the assay on NCI/ADR-RES ovarian, > 100 µM; in the assay on OVCAR-3 ovarian it was > 100 µM; in the assay on RXF 393 renal, 17.9 µM. Besides, the TGI with SK-MEL-2 melanoma was 47.1 µM; in the assay on SN12C renal it was 83.2 µM; in the assay with SNB-75 CNS, 57 µM; in the assay with T-47D breast it was 25 µM; in the assay on UACC-62 melanoma it was 33.9 µM.
`C[C@@H](C(=O)O)N1C(c2ccco2)=C(/C(C=O)=C\c2ccco2)C(=O)/C1=C\c1ccco1`: the TGI with CCRF-CEM leukemia, in the assay with HOP-92 NSCLC, in the assay with K-562 leukemia, in the assay on MALME-3M melanoma, in the assay on MCF7 breast and in the assay on MDA-MB-435 was > 100 µM in each case. The TGI in the assay with MOLT-4 leukemia, in the assay with NCI/ADR-RES ovarian, in the assay on OVCAR-3 ovarian, in the assay on OVCAR-4 ovarian, in the assay with RPMI-8226 leukemia and in the assay on RXF 393 renal was > 100 µM each time. Also, the TGI in the assay with SK-MEL-2 melanoma, in the assay on SN12C renal, in the assay with T-47D breast, with TK-10 renal and with UACC-62 melanoma was > 100 µM in each case.
Consider `O=C1CS(=O)(=O)C(c2cccc(Oc3ccccc3)c2)N1c1ccc(Cl)cc1` (stereo unspecified), for which the TGI was > 100 µM in the assay with CCRF-CEM leukemia; 23.8 µM with HOP-92 NSCLC; 63 µM in the assay with K-562 leukemia; 73.2 µM in the assay on MALME-3M melanoma; 31.9 µM with MCF7 breast; 73.4 µM in the assay on MDA-MB-435. Further, the TGI with MOLT-4 leukemia is 62.7 µM; in the assay with NCI-H226 lung, 68.3 µM; in the assay on NCI-H460 lung, 35.8 µM; in the assay on NCI/ADR-RES ovarian it was > 100 µM; with OVCAR-3 ovarian, > 100 µM; with OVCAR-4 ovarian it was > 100 µM. Besides, the TGI with RXF 393 renal is 43 µM; with SK-MEL-2 melanoma, 31.9 µM; in the assay on SN12C renal, 57.7 µM; in the assay on SNB-75 CNS it was > 100 µM; with T-47D breast it was > 100 µM; in the assay on TK-10 renal, 61.4 µM. In the assay with UACC-62 melanoma, this molecule showed a TGI of 24.6 µM.
For the molecule `Cc1ccc(C2(O)CSC(=NC34CC5CC(CC(C5)C3)C4)N2C(P(=O)(O)O)P(=O)(O)O)cc1` (stereo unspecified), the TGI in the assay with HOP-92 NSCLC, in the assay on K-562 leukemia, in the assay on MALME-3M melanoma, in the assay with MCF7 breast, in the assay on MDA-MB-435 and in the assay with MOLT-4 leukemia was > 100 µM in each case. Further, the TGI was > 100 µM with NCI-H226 lung; > 100 µM in the assay with NCI-H460 lung; 68.3 µM in the assay with NCI/ADR-RES ovarian; > 100 µM with OVCAR-3 ovarian; > 100 µM with OVCAR-4 ovarian; > 100 µM in the assay on RPMI-8226 leukemia. Further, the TGI in the assay with SK-MEL-2 melanoma, in the assay with SN12C renal, in the assay with SNB-75 CNS, with T-47D breast and in the assay on TK-10 renal was > 100 µM in each case.
On to `O=C(/C=C/c1ccc(O)c(O)c1)OCC(OC(=O)/C=C/c1ccc(O)c(O)c1)C(=O)O` (stereo unspecified), for which the TGI in the assay on CCRF-CEM leukemia, in the assay with HOP-92 NSCLC, in the assay on K-562 leukemia, with MCF7 breast, in the assay on MDA-MB-435 and with MOLT-4 leukemia was > 100 µM in each case. The TGI in the assay on NCI-H226 lung, in the assay with NCI-H460 lung, with NCI/ADR-RES ovarian, with OVCAR-3 ovarian, with OVCAR-4 ovarian and in the assay on RPMI-8226 leukemia was > 100 µM throughout. The TGI in the assay on RXF 393 renal, in the assay with SK-MEL-2 melanoma, in the assay with SN12C renal, in the assay on SNB-75 CNS, in the assay on T-47D breast and in the assay with TK-10 renal was > 100 µM in each case. For the same molecule, the TGI with UACC-62 melanoma was > 100 µM.
Consider `COC1(OC)N=C(N)C2(C#N)C(c3ccccc3)NC3=C(CCC3)C12C#N` (stereo unspecified), for which the TGI with CCRF-CEM leukemia, in the assay on HOP-92 NSCLC, with MALME-3M melanoma, in the assay on MCF7 breast, in the assay on MDA-MB-435 and in the assay with MOLT-4 leukemia was > 100 µM in each case. For the same molecule, the TGI with NCI-H226 lung, in the assay with NCI-H460 lung, with NCI/ADR-RES ovarian, with OVCAR-4 ovarian, with RPMI-8226 leukemia and in the assay on RXF 393 renal was > 100 µM each time. Also, the TGI in the assay with SK-MEL-2 melanoma, with SN12C renal, in the assay with T-47D breast, in the assay on TK-10 renal and in the assay on UACC-62 melanoma was > 100 µM in each case.
Turning to `CCOC(=O)c1ccc(N=C/C=C(\Nc2ccc(C(=O)OCC)cc2)C23CC4CC(CC(C4)C2)C3)cc1`, the TGI in the assay with HOP-92 NSCLC, with K-562 leukemia, with MALME-3M melanoma, with MCF7 breast, in the assay on MDA-MB-435 and in the assay on MOLT-4 leukemia was > 100 µM each time. The TGI in the assay on NCI-H226 lung, in the assay with NCI-H460 lung, in the assay with NCI/ADR-RES ovarian, with OVCAR-3 ovarian, with OVCAR-4 ovarian and with RXF 393 renal was > 100 µM each time. Moreover, the TGI with SK-MEL-2 melanoma, in the assay with SN12C renal, in the assay with SNB-75 CNS, with T-47D breast, in the assay with TK-10 renal and with UACC-62 melanoma was > 100 µM each time.
Take `COc1ccc(CC2COc3cc(OC)cc(OC)c3C2=O)cc1` (stereo unspecified): the TGI is > 100 µM in the assay with HOP-92 NSCLC; > 100 µM with K-562 leukemia; 75.3 µM with MALME-3M melanoma; > 100 µM in the assay with MCF7 breast; 18.1 µM with MDA-MB-435; > 100 µM in the assay on MOLT-4 leukemia. Also, the TGI is > 100 µM in the assay on NCI-H460 lung; 39.9 µM in the assay on NCI/ADR-RES ovarian; 46.5 µM with OVCAR-3 ovarian; 51.5 µM with OVCAR-4 ovarian; 40.5 µM in the assay with RPMI-8226 leukemia; > 100 µM in the assay with RXF 393 renal. Besides, the TGI in the assay on SK-MEL-2 melanoma was > 100 µM; in the assay with SN12C renal it was > 100 µM; with T-47D breast it was 56 µM; in the assay with TK-10 renal, 82.3 µM; in the assay on UACC-62 melanoma, > 100 µM.
